According to patent US20100041760A1, “MONOARYL AMINOTETRALINES” (priority 2008, published 2010):

Columns and labels:
[1] = biological target: T1, thromboxane A2 receptor (TP) (Homo sapiens, UniProt P21731); assay: Human Thromboxane A2 Receptor Binding Assay; details: human platelets; 10 nM [3H]SQ29548; 1 hour, room temperature
T1 construct: using human platelets as the source of the receptor; from tissue; host or cells: human platelets (whole platelets, 5x10^7 per well)
T1 sequence (P21731 1-343): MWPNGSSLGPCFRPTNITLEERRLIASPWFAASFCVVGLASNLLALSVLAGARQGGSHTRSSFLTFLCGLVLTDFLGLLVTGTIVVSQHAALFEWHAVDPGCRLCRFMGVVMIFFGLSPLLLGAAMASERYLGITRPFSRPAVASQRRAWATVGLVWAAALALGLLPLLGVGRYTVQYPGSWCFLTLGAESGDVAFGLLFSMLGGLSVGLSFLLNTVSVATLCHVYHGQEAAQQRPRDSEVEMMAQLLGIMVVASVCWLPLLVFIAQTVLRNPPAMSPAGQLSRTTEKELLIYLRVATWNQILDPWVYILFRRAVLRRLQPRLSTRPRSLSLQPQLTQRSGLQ
Source text: The thromboxane A2 receptor (TP) plays a key role in hemostasis as its abnormality leads to bleeding disorders. To avoid the potential liability of bleeding disorders, the binding activity of certain compounds of the present invention against TP was monitored by a receptor binding assay using human platelets as the source of the receptor and [^3H]SQ29548 (generically named (5Z)-[5,6-^3H]-7-[(1S,2R,3R,4R)-3-[[2-[(phenylamino)carbonyl]hydrazinyl]methyl]-7-oxabicyclo[2.2.1]hept-2-yl]-5-heptenoic acid, from PerkinElmer Inc.) as the competing radioactive ligand.
The TP binding reactions (0.2 mL) were performed in 96-well plates at room temperature in PBS containing 5×10^7 platelets, 10 mM MgCl2, 0.06% BSA, 10 nM [^3H]SQ29548, and the test compound at various concentrations. After 1 hour of binding reactions, the platelets were harvested on GF/B filter plates (as previously described from PerkinElmer Inc.) and washed 5 times with PBS using a Filtermate™ Harvester (as previously described from PerkinElmer Inc.). The radioactivities bound to the platelets were determined using a microplate scintillation counter (TopCount® NXT, from PerkinElmer Inc.) after adding 50 μL of Microscint™ 20 scintillation fluid (from PerkinElmer Inc.) to each well of the filter plates. The radioactivity from non-specific binding was determined by replacing the compound with 10 μM of ramatroban (BAY-u3405, from Cayman Chemical Company) in the reaction mixtures. The radioactivity bound to the platelets in the absence of compound (total binding) was determined by replacing the compound with 0.25% of DMSO in the reaction mixture. Specific binding data were obtained by subtracting the radioactivity of non-specific binding from each binding data.
(§1) The IC50 value is defined as the concentration of the tested compound that is required for 50% inhibition of total specific binding. In order to calculate the IC50 value, the percent inhibition data were determined for 7 concentrations for each compound. The percent inhibition for a compound at each concentration was calculated according to the following formula, [1−(specific binding in the presence of compound)/(total specific binding)]×100. The IC50 value was then obtained by fitting the percent inhibition data to a sigmoidal dose-response (4 parameter logistic) model in the XLfit® software Excel add-in program [from ID Business Solutions Ltd., model 205, where F(x)=(A+(B−A)/(1+((C/x)̂D)))].

human CRTH2 = biological target: T2, human CRTH2 (Homo sapiens, UniProt Q9Y5Y4); assay: Human CRTH2 Receptor Binding Assay (whole cell, [3H]ramatroban competition); design: expressed in transfected cells; host or cells: CHO-K1 (co-transfected with G-alpha16); details: CHO-K1 cells expressing human CRTH2 and G-alpha16; 20 nM [3H]ramatroban; 1 hour, room temperature
T2 sequence (Q9Y5Y4 1-395): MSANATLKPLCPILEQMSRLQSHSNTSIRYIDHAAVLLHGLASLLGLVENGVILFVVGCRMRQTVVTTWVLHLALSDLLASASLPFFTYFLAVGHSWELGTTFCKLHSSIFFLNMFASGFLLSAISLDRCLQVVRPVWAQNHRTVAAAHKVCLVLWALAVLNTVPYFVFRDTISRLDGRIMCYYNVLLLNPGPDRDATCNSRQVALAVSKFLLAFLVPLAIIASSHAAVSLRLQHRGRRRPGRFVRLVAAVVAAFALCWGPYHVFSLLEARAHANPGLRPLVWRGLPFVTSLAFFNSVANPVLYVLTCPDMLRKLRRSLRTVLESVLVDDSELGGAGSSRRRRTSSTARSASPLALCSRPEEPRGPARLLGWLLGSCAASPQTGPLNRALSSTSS
Source text: A whole cell receptor binding assay using [^3H]ramatroban as the competing radioactive ligand was employed to evaluate the compound binding activity to human CRTH2. The radioactive ligand [^3H]ramatroban was synthesized according to Sugimoto et. al. (Eur. J. Pharmacol. 524, 30-37, 2005) to a specific activity of 42 Ci/mmol.
A cell line stably expressing human CRTH2 was established by transfecting CHO-K1 cells with two mammalian expression vectors that harbored human CRTH2 and G-alpha16 cDNAs, respectively, using FuGene® 6 transfection reagent (from Roche). Stable clones expressing CRTH2 were selected by staining each clone with BM16 (BD Pharmingen™ from BD Biosciences, a division of Becton, Dickinson and Company), which is a rat monoclonal antibody to human CRTH2. The cells were maintained as monolayer cultures in Ham's F-12 medium containing 10% fetal bovine serum, 100 units/mL penicillin, 100 μg/mL streptomycin, 2 mM glutamine, 0.5 mg/mL G418 (geneticin) for CRTH2, and 0.2 mg/mL hygromycin-B (for G-alpha 16). For whole cell receptor binding assay, the monolayer cells were rinsed once with PBS (phosphate buffered saline), dissociated using ethylenediaminetetraacetate (Versene™ EDTA from Lonza Inc.), and suspended in PBS containing 10 mM MgCl2 and 0.06% BSA (bovine serum albumin) at 1.5×10^6 cells/mL.
The binding reactions (0.2 mL) were performed in 96-well plates at room temperature in PBS containing 1.5×10^5 cells, 10 mM MgCl2, 0.06% BSA, 20 nM [^3H]ramatroban, and test compound at various concentrations. After 1 hour of binding reactions, the cells were harvested on GF™/B filter microplates (microtiter plates with embedded glass fiber from PerkinElmer, Inc.) and washed 5 times with PBS using a Filtermate™ Harvester (a cell harvester that harvests and washes cells from microplates from PerkinElmer, Inc.). The radioactivities bound to the cells were determined using a microplate scintillation counter (TopCount® NXT, from PerkinElmer, Inc.) after adding 50 μL of Microscint™ 20 scintillation fluid (from PerkinElmer, Inc.) to each well of the filter plates. The radioactivity from non-specific binding was determined by replacing compound with 10 μM of 15(R)-15-methyl PGD2 (from Cayman Chemical Company) in the reaction mixtures. The radioactivity bound to the cells in the absence of compound (total binding) was determined by replacing compound with 0.25% of DMSO (dimethyl sulfoxide) in the reaction mixture. Specific binding data were obtained by subtracting the radioactivity of non-specific binding from each binding data.
as §1

| SMILES | IC50 [1] [nM] | IC50 (human CRTH2) [nM] |
| --- | --- | --- |
| O=C(O)COc1cccc2c1CCC[C@H]2NS(=O)(=O)c1cc(Cl)cc(Cl)c1 [Example 10-1, [(R)-5-(3,5-dichloro-benzenesulfonylamino)-5,6,7,8-tetrahydro-naphthalen-1-yloxy]-acetic acid] | 126 | 340 |
| O=C(O)COc1cccc2c1CCC[C@H]2NS(=O)(=O)c1cc(F)cc(F)c1 [Example 10-5, [(R)-5-(3,5-difluoro-benzenesulfonylamino)-5,6,7,8-tetrahydro-naphthalen-1-yloxy]-acetic acid] | 2420 | 13 |
| O=C(O)COc1cccc2c1CCC[C@H]2NS(=O)(=O)c1cc(F)cc(C(F)(F)F)c1 [Example 10-12, [(R)-5-(3-fluoro-5-trifluoromethyl-benzenesulfonylamino)-5,6,7,8-tetrahydro-naphthalen-1-yloxy]-acetic acid] | 342 | 20 |

Results, then the molecule that gave them:

| IC50 [1] [nM] | IC50 (human CRTH2) [nM] | SMILES |
| --- | --- | --- |
| > 10000 | 381 | CN([C@@H]1CCCc2c(OCC(=O)O)cccc21)S(=O)(=O)c1cc(F)cc(C(F)(F)F)c1 [Example 1-1, {(R)-5-[(3-fluoro-5-trifluoromethyl-benzenesulfonyl)-methyl-amino]-5,6,7,8-tetrahydro-naphthalen-1-yloxy}-acetic acid] |
| > 10000 | 773 | CCN(CC)c1cc(C(F)(F)F)cc(S(=O)(=O)N(C)[C@@H]2CCCc3c(OCC(=O)O)cccc32)c1 [Example 4-2, {(R)-5-[(3-diethylamino-5-trifluoromethyl-benzenesulfonyl)-methyl-amino]-5,6,7,8-tetrahydro-naphthalen-1-yloxy}-acetic acid] |
| > 10000 | 399 | CCOc1cc(C(F)(F)F)cc(S(=O)(=O)N(C)[C@@H]2CCCc3c(OCC(=O)O)cccc32)c1 [Example 9-2, {(R)-5-[(3-ethoxy-5-trifluoromethyl-benzenesulfonyl)-methyl-amino]-5,6,7,8-tetrahydro-naphthalen-1-yloxy}-acetic acid] |
| 8520 | 423 | CN([C@@H]1CCCc2c(OCC(=O)O)cccc21)S(=O)(=O)c1cc(OC2CCCC2)cc(C(F)(F)F)c1 [Example 9-3, {(R)-5-[(3-cyclopentyloxy-5-trifluoromethyl-benzenesulfonyl)-methyl-amino]-5,6,7,8-tetrahydro-naphthalen-1-yloxy}-acetic acid] |
